US20250145599A1, “CERTAIN CHEMICAL ENTITIES, COMPOSITIONS, AND METHODS” (Retune Pharma Inc., priority 2022, published 2025)

How the values were obtained:
thyroid eye disease = conditions: cited from earlier work
malignancies = conditions: Phase I trials; cited from earlier work
IGF-1R [1] = biological target: T1, IGF-1R (Homo sapiens, UniProt P08069); conditions: cited from earlier work
tumor cell lines = conditions: variety of tumor cell lines; cited from earlier work
[2] = test system: IGF-1R-driven xenograft model; conditions: orally once daily; cited from earlier work
adrenocortical carcinoma = conditions: Phase 3 study; cited from earlier work
IGF-1R [3] = biological target: T1, IGF-1R; assay: IGF-1R biochemical assay (ADP-Glo); conditions: read-out: IGF1R IC50
Description: The inhibitory activity against IGF-1R was measured using ADP-Glo assay. The percent (%) inhibition at each concentration of compound is calculated based on and relative to the luminescence signal in the Max and Min control wells contained within each assay plate. The Max control wells contain enzyme and substrate as 0% inhibition, and the Min control wells only contain substrate without enzyme as 100% inhibition. The concentrations and % inhibition values for tested compounds are plotted and the concentration of compound required for 50% inhibition (IC50) is determined with a four-parameter logistic dose response equation.
Table 3 provides IC50 data of representative compounds against IGF-1R using ADP-Glo assay. The IC50 data are designated within the following ranges: A: ≤0.10 μM, B: >0.10 μM to ≤1 μM, C: >1 μM to ≤20 μM

Ba/F3-TEL-IGF-1R cells = assay: CellTiter-Glo luminescent cell viability assay; type: cell-based; conditions: cellular IC50, Ba/F3-TEL-IGF-1R cells
Description: The CellTiter-Glo luminescent cell viability assay was used to determine the inhibitory activity of the compounds against IGF-1R in Ba/F3-TEL-IGF-1R cells. […] The IC50 data are designated within the following ranges: A: ≤1 μM, B: >1 μM to ≤10 μM, C: >10 μM to ≤20 μM

[4] = test system: metastatic pancreatic cancer; conditions: clinical trials, incl. metastatic pancreatic cancer; cited from earlier work

T1 sequence (P08069 31-1367): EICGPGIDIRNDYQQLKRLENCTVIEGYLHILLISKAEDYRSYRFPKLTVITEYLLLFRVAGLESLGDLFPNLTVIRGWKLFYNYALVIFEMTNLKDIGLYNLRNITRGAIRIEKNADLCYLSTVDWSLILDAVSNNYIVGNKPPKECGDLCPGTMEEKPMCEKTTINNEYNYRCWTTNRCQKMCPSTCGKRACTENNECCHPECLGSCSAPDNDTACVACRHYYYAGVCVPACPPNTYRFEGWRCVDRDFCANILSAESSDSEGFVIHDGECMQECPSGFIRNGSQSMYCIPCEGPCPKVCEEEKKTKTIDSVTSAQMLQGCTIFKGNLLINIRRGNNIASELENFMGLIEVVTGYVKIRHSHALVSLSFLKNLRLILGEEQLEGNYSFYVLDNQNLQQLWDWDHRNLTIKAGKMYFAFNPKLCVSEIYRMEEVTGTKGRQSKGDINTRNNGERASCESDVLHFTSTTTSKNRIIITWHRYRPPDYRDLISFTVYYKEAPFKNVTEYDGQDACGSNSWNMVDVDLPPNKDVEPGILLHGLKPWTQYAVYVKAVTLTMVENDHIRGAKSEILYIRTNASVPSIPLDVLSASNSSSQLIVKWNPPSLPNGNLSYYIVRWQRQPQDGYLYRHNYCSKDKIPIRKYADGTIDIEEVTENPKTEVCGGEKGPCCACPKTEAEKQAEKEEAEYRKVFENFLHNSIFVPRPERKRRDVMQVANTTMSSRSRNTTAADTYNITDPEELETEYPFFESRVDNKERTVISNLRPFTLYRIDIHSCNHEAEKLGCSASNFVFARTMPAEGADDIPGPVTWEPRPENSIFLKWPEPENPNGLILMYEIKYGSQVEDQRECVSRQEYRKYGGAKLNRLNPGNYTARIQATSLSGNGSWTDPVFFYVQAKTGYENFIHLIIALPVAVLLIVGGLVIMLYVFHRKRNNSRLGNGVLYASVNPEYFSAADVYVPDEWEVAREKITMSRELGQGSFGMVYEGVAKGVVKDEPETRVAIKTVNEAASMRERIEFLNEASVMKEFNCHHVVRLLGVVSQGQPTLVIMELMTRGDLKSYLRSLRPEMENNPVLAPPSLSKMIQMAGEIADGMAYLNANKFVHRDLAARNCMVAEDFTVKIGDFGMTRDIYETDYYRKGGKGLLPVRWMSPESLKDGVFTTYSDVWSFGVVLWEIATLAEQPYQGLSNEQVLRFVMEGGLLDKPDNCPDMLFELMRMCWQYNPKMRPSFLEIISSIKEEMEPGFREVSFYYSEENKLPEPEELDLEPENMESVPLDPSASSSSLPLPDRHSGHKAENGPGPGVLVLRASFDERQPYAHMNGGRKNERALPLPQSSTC

Row | Compound | IC50 (IGF-1R [3]) [nM] | IC50 (Ba/F3-TEL-IGF-1R cells) [nM] | other results
1 | teprotumumab |  |  | inflammation in thyroid eye disease (thyroid eye disease): decrease inflammation; effectiveness in treating malignancies (malignancies): little effectiveness
2 | C[C@]1(O)C[C@@H](c2nc(-c3ccc4ccc(-c5ccccc5)nc4c3)c3c(N)nccn32)C1 [OSI-906, Linsitinib] |  |  | inhibition of autophosphorylation of human IGF-1R (IGF-1R [1]): potently and selectively inhibits autophosphorylation; in vitro antiproliferative effects (tumor cell lines): in vitro antiproliferative effects; in vivo anti-tumor efficacy [2]: robust in vivo anti-tumor efficacy; overall survival (adrenocortical carcinoma): did not increase overall survival
3 | COc1cc(-c2ccccc2F)nc2c(F)c(-c3nn([C@H]4C[C@](C)(O)C4)c(N)c3C(N)=O)ccc12 [Example C050, 5-amino-3-(8-fluoro-2-(2-fluorophenyl)-4-methoxyquinolin-7-yl)-1-((1r,3r)-3-hydroxy-3-methylcyclobutyl)-1H-pyrazole-4-carboxamide] | ≤ 100 | ≤ 1000 | 
4 | COc1c(F)c(-c2ccccc2)nc2c(F)c(-c3nn([C@H]4C[C@@](C)(O)C4)c(N)c3C(N)=O)ccc12 [Example C062, 5-amino-3-(3,8-difluoro-4-methoxy-2-phenylquinolin-7-yl)-1-((1s,3s)-3-hydroxy-3-methylcyclobutyl)-1H-pyrazole-4-carboxamide] | ≤ 100 | ≤ 1000 | 
5 | ganitumab |  |  | survival rates [4]: largely ineffective at improving survival rates
6 | COc1cc(-c2ccccc2)nc2c(F)c(-c3nn([C@H]4C[C@@](C)(O)C4)c(N)c3C(N)=O)ccc12 [Example C034, 5-amino-3-(8-fluoro-4-methoxy-2-phenylquinolin-7-yl)-1-((1s,3s)-3-hydroxy-3-methylcyclobutyl)-1H-pyrazole-4-carboxamide] | ≤ 100 | ≤ 1000 | 
7 | COc1cc(-c2cccc(F)c2)nc2cc(-c3nn([C@H]4C[C@@](C)(O)C4)c(N)c3C(N)=O)ccc12 [Example C048, 5-amino-3-(2-(3-fluorophenyl)-4-methoxyquinolin-7-yl)-1-((1s,3s)-3-hydroxy-3-methylcyclobutyl)-1H-pyrazole-4-carboxamide] | ≤ 100 | ≤ 1000 | 

Now from value to compound, other results behind:

Row | IC50 (IGF-1R [3]) [nM] | IC50 (Ba/F3-TEL-IGF-1R cells) [nM] | Compound | other results
8 | ≤ 100 | ≤ 1000 | COc1c(F)c(-c2ccccc2F)nc2cc(-c3nn([C@H]4C[C@@](C)(O)C4)c(N)c3C(N)=O)ccc12 [Example C063, 5-amino-3-(3-fluoro-2-(2-fluorophenyl)-4-methoxyquinolin-7-yl)-1-((1s,3s)-3-hydroxy-3-methylcyclobutyl)-1H-pyrazole-4-carboxamide] | 
9 | ≤ 100 | ≤ 1000 | COc1cc(-c2ccccc2)nc2c(F)c(-c3nn([C@H]4C[C@](C)(O)C4)c(N)c3C(N)=O)ccc12 [Example C045, 5-amino-3-(8-fluoro-4-methoxy-2-phenylquinolin-7-yl)-1-((lr,3r)-3-hydroxy-3-methylcyclobutyl)-1H-pyrazole-4-carboxamide] | 
10 | ≤ 100 | ≤ 1000 | COc1cc(-c2ccccc2)nc2cc(-c3nn([C@H]4C[C@@](C)(O)C4)c(N)c3C(N)=O)c(F)cc12 [Example C051, 5-amino-3-(6-fluoro-4-methoxy-2-phenylquinolin-7-yl)-1-((1s,3s)-3-hydroxy-3-methylcyclobutyl)-1H-pyrazole-4-carboxamide] | 
11 | ≤ 100 | ≤ 1000 | C[C@]1(O)C[C@@H](n2nc(-c3ccc4ccc(-c5ccccc5)nc4c3)c(C(N)=O)c2N)C1 [Example C005, 5-amino-1-((1s,3s)-3-hydroxy-3-methylcyclobutyl)-3-(2-phenylquinolin-7-yl)-1H-pyrazole-4-carboxamide] | 
